Results taken from patent US20250041311A1, “Compound For Treating or Preventing Vimentin-Mediated Diseases” (Aluda Pharmaceuticals, Inc., priority 2021, published 2025).
Entries after “also recorded” stand apart in the source; their conditions may differ. Read-outs that look alike come from different tables or passages of the source.

What was measured:
PANC-1 cells [1] = assay: Exosome release from pancreatic cancer cells (NTA, Western blot); format: cell-based, human
Procedure: Human non-small cell lung cancer A549 cells and human pancreatic cancer PANC-1 cells were purchased from the Chinese Academy of Sciences Stem Cell Bank (Shanghai, China). […] Purification, characterization, and analysis of exosomes: To purify exosomes from cell culture supernatants, cells were cultured for 3 days in DMEM medium supplemented with 10% exosome-free FBS prepared by ultracentrifugation of regular FBS at 120,000 g for 16 h. Cell culture supernatants were collected and centrifuged at 500 g for 5 min and then at 2,000 g for 20 min to remove dead cells and cell debris. Then, large vesicles were removed by centrifugation at 12,000 g for 30 minutes. Crude exosomes were pelleted by ultracentrifugation of the supernatant at 110,000 g for 70 min (Backman Ti70), washed with PBS and filtered (0.2 μm). The pellet was then suspended and ultracentrifuged again at 110,000 g for 70 minutes. All ultracentrifugations were performed at 4° C. The size and number of exosomes were analyzed using an LM10 nanoparticle tracking system (NanoSight) equipped with a blue laser (405 nm). Transmission electron microscope (TEM) observation: The morphology of exosomes prepared from the culture supernatant was observed by transmission electron microscope (TEM). Exosome pellets were fixed overnight at 4° C. in 2% glutaraldehyde. Load a drop of 10 μL of the exosome suspension onto the Formvar/Carbon-coated TEM copper grid and let it stand for 20 min. Drain excess fluid. Samples were fixed with 1% uranyl acetate for 5 min, washed 8 times with double distilled water, and dried under incandescent lamp for 10 min, then examined with Tecnai G2 Spirit Bio TWIN transmission electron microscope (FEI, Hillsboro, USA, working voltage 120 kV). […] The lysate was centrifuged to remove insoluble material.

Huh7-NC12 cells = assay: PrestoBlue cell viability of liver cancer cells
[2] = system: 84 selected human cancer-associated proteins in PANC-1 cells; settings: 3 μM C52 or 5 μM C52 for 48 h
Procedure: Cell culture: Human non-small cell lung cancer A549 cells, human pancreatic cancer PANC-1 cells, human glioma U87 cells, human liver cancer HUH7 cells and SMMC-7721 cells, and human gastric cancer AGS cells were purchased from ATCC or Stem Cell Bank of Chinese Academy of Sciences (Shanghai, China). Cells were cultured in RPMI1640 medium containing 10% fetal bovine serum (Sigma, USA), 100 U penicillin and 100 μg/ml streptomycin (Gibco, USA) at 37° C. in a humidified atmosphere containing 5% CO2.
A total of 200 g of lysate protein was run on one Human XL Tumor Array (R&D Systems, Abingdon, UK). Followed the manufacturer's instructions exactly. The protein chip membrane was covered with plastic film and exposed to X-ray film for 8 minutes. Optical density on exposed X-ray film (hu.q, HQ-320XT, China) was quantified using a transmission mode scanner (EPSON, Beijing, China) and analyzed using Image J software.

EAE mice = assay: MOG-induced experimental autoimmune encephalomyelitis (EAE) mouse model; format: in vivo
HEK293T cells = assay: Liposome-mediated pMAX-GFP transfection (endocytosis and endosomal trafficking); format: cell-based
A549 cells [3] = assay: Wound healing assay; format: cell-based, human; settings: different concentrations of C52, 48 h, dose-dependent
Procedure: Wound healing assay: Cells were seeded in 6-well plates containing complete medium and cultured at 37° C. in a humidified air environment containing 5% CO2. […] […] The wound area and migrated cells within the wound area were photographed using a phase-contrast microscope. The wound area was measured using Image J software.

PANC-1 cells [4] = assay: Transwell cell invasive growth assay; format: cell-based, human; settings: different concentrations of C52, 24 h; more pronounced than in A549
Procedure: (§1) Cell invasive growth assay: Inoculate 1×10E4 cells suspended in 100 μL serum-free RPMI-1640 medium into each upper chamber of a […] Transwell pre-coated with Matrigel and added with DMSO or […] (Cat.3422, Corning, NY, USA). in different concentrations. Add 600 μL of RPMI-1640 containing 10% FBS to the bottom chamber of each well. Cells in transwell plates were cultured for 24 h. Cells on the upper surface were gently wiped with a moistened cotton swab, while cells that passed through the Matrigel to the lower surface of the membrane were fixed with paraformaldehyde and stained with 0.1% crystal violet. These cells on the lower surface were considered invasive and counted in 5 random fields under an inverted microscope. The number of invasive cells was counted by Image J software.

A549 cells [5] = assay: Transwell cell invasive growth assay; format: cell-based, human; settings: different concentrations of C52, 24 h
Procedure: as §1

BALB/c mice = assay: Circulating plasma exosomes in mice after oral dosing; format: in vivo, mouse; settings: 100 mg/kg once a day for 14 days by gavage, vs vehicle
Procedure: In vivo experiments: 6- to 8-week-old BALB/c mice (18 to 20 g) were purchased from Beijing Life River Experimental Animal Technology Co., Ltd. (Beijing, China) and housed at the Experimental Animal Center of Nanjing University of Traditional Chinese Medicine. Animals were maintained at 22±2° C. on a regular 12h/12h light-dark cycle with free access to food and water. All animal experiments were approved by the Ethics Committee of Nanjing University of Traditional Chinese Medicine. Animal care was provided according to IACUC-approved guidelines.
Twenty-four hours after the last administration, the mice were anesthetized with pentobarbital sodium, from which blood samples were collected, and then the mice were euthanized. […].
Isolation of exosomes from mouse plasma: To obtain plasma for exosome isolation, blood was centrifuged at 500 g for 5 min at 4° C.; 2000 g for 15 min; and treated with a solution of 10000 g for 20 min to remove cells, debris and large vesicles. The crude exosome pellet was resuspended in 60 ml of cold PBS (Invitrogen), and then the exosome suspension was centrifuged at 100,000 g for 70 min at 4° C. For sucrose density gradient centrifugation, mix the washed exosome pellet with 2 mL of […] sucrose solution and add to a sucrose step gradient column (10 2 ml sucrose gradients from […] using 20 mM HEPES as diluent). […]

[6] = C52 low and medium doses (10 or 30 mg/kg), oral once a day, vs vehicle

SMILES: O=C(Nc1ccc(F)cc1)Nc1ccc(Nc2nc(/C=C/c3ccccc3)nc(N3CCOCC3)n2)cc1 [Compound C52]
- exosomes in culture supernatant (nanoparticle tracking analysis) (PANC-1 cells [1]; 1 μM C52 vs DMSO): significantly reduced
- intracellular exosome levels (PANC-1 cells [1]; Western blot, 0.1, 1 and 10 μM C52, 48 h): did not reduce
- content of exosomal markers (CD9, CD63, TSG101) in prepared exosome samples (PANC-1 cells [1]; Western blot, 0.1, 1 and 10 μM C52, 48 h, extracellular): significant reduction
- cytotoxicity (Huh7-NC12 cells; 48 h, highest concentration 10,000 nM, high concentrations 3,160 and 10,000 nM): not cytotoxic
- survival rate (Huh7-NC12 cells; after two days of treatment): about 90%
- toxicity to Huh7-NC12 cells (Huh7-NC12 cells; high concentrations (>3160 nM)): not toxic
- effect on protein levels of vimentin and other signaling molecules involved in cell proliferation [2]: little or no effect
- animal weight loss (EAE mice; [6]): less weight loss; also recorded: reduced
- clinical disease scores (EAE mice; [6]): lower; also recorded: improved
- disease onset (EAE mice; [6]): relatively delayed
- therapeutic effect in EAE (EAE mice; mouse, in vivo, po, 100 mg/kg): no therapeutic effect
- inhibition of GFP expression (maximum) (HEK293T cells; C52 added 4 h after transfection, at 0.316 μM): approximately 40%
- EC50 (HEK293T cells; C52 after transfection, read-out: EC50 for inhibition of endosomal trafficking): 82 nM
- EC50 (HEK293T cells; C52 before transfection, read-out: EC50 for inhibition of endocytosis): 98 nM
- EC50 (HEK293T cells; C52 during entire transfection period, read-out: EC50 for inhibition of the whole process): 45 nM
- inhibition of GFP (HEK293T cells; C52 just before transfection only, at 0.316 μM): approximately 15%
- inhibition of GFP (maximum) (HEK293T cells; C52 just before transfection only, at 10 μM): approximately 40%
- maximum inhibition rate of GFP expression (HEK293T cells; C52 present throughout the transfection, at 0.316 μM): about 50%
- closure rate of the gap size (A549 cells [3]): significantly decreased
- migratory ability (Transwell) (PANC-1 cells [4]): hindered the migratory ability
- migratory ability (Transwell) (A549 cells [5]): hindered the migratory ability
- exosomal markers CD63 and TSG101 in plasma exosomes (BALB/c mice): significantly decreased
